# In US20220023289A1, “Application Of Pyrroloquinoline Quinone In Preparation Of Medicament Used For Preventing And Treating Acute Altitude Sickness And Acute Altitude Hypoxia Injury” (priority 2018, published 2022):
# Assays:
# Assay type in all cases: in vivo, Wistar rat
# [1] = test system: rats exposed to acute altitude hypoxia; experiment: Myocardial enzyme activity in rats exposed to acute altitude hypoxia; details: male rats, hypoxia
# Protocol: (§1) Select healthy Wistar rats weight 160-200 g, half female and half male. After feeding for 3 days, these Wistar rats are randomly divided into ten groups according to their body weight, each group has 16±2 rats. The groups are divided as follows: five groups of the hypoxic exposure drug test group, respectively, are given 0.91 mg/kg, 1.83 mg/kg, 3.66 mg/kg, 7.31 mg/kg, and 14.63 mg/kg drugs. […] After continuous intragastric administration for 7 days, the animals in the hypoxic exposure group are simultaneously put into the decompression and hypoxia compound experimental chamber, the hatch is closed, and the pressure is reduced at a speed of 10 m/s. After being raised to an altitude of 6000 m and maintained for 8 hours, the speed in 10 m/s drops is reduced to normal altitude, open the hatch, and then take out the animal, collect blood samples (after standing for 1 hour, the supernatant is centrifuged and stored at −20° C.), and liver tissue samples. Detection indicator includes body weight, serum blood glucose, ATP, lactic acid, endothelin, nitric oxide, SOD, CO, MDA related to oxidative stress, and total protein, albumin, triglycerides, total cholesterol, high-density lipoprotein cholesterol, low-density lipoprotein cholesterol, glutamic pyruvic transaminase, total bilirubin, gluamic oxalacetic transaminase, serum urea nitrogen, creatinine, uric acid, lactate dehydrogenase, creatine kinase, α-hydroxybutyrate dehydrogenase; liver ATP, hepatic glycogen. Except that the formal oxygen control animal group is not put into the decompression and hypoxia compound experimental chamber, other experimental conditions and detection indicators are the same.
# (§2) Measure blood glucose, total protein, albumin, triglycerides, total cholesterol, high-density lipoprotein cholesterol, low-density lipoprotein cholesterol, glutamic-pyruvic transaminase, total bilirubin, glutamic oxalacetic transaminase, serum urea nitrogen, creatinine, uric acid, lactate dehydrogenase, creatine kinase, α-hydroxybutyrate dehydrogenase, blood homocysteine by using an automatic blood biochemical analyzer.
# [2] = test system: rats exposed to acute altitude hypoxia; experiment: Renal function in rats exposed to acute altitude hypoxia
# Protocol: as §1, §2
# [3] = test system: rats exposed to acute altitude hypoxia; experiment: Endothelial function (serum endothelin-1, nitric oxide) in rats exposed to acute altitude hypoxia
# Source text: This method uses nitrate reductase specificity reduce NO^3− to NO^2−, and then determine the level of its concentration by displaying shades of color. Operate according to the kit instructions, measure the absorbance of each tube at a wavelength of 550 nm, and then calculate the content of nitric oxide of the sample to be tested according to the formula. To the coated microwells pre-coated with rat endothelin (endothelin-1) capture antibody, add in sequence specimens, standards, and HRP-labeled detection antibody, and then incubate and wash thoroughly. Use a substrate TMB for color development. TMB is converted into blue under the catalysis of peroxidase and converted into the final yellow color under the action of acid. The color intensity is positively correlated with the rat endothelin (endothelin-1) in the sample.
# [4] = test system: rats exposed to acute altitude hypoxia; experiment: Protein metabolism in rats exposed to acute altitude hypoxia
# Protocol: as §1, §2
# [5] = female rats, hypoxia, 0.91 mg/kg
# [6] = female rats, hypoxia, 1.83 mg/kg
# [7] = female rats, hypoxia, 3.66 mg/kg
# [8] = female rats, hypoxia, 7.31 mg/kg
# [9] = female rats, hypoxia, 14.63 mg/kg
# [10] = female rats, normoxia, 3.66 mg/kg
# [11] = male rats, hypoxia, 14.63 mg/kg
# [12] = female rats after acute hypoxia exposure
# [13] = male rats exposed to hypoxia, low-dose
smiles,measurement,setting,value
"O=C(O)c1cc(C(=O)O)c2c(n1)C(=O)C(=O)c1cc(C(=O)O)[nH]c1-2 [PQQ, pyrroloquinoline quinone]",α-hydroxybutyrate dehydrogenase,[1]; 0.91 mg/kg,218.00 ± 173.09 U/L
same,Creatine Kinase,[1]; 1.83 mg/kg,544.63 ± 418.71 U/L
same,Lactate dehydrogenase,[1]; 1.83 mg/kg,650.13 ± 573.72 U/L
same,α-hydroxybutyrate dehydrogenase,[1]; 1.83 mg/kg,286.75 ± 260.98 U/L
same,Creatine Kinase,[1]; 3.66 mg/kg,544.50 ± 243.30 U/L
same,Lactate dehydrogenase,[1]; 3.66 mg/kg,588.13 ± 360.36 U/L
same,α-hydroxybutyrate dehydrogenase,[1]; 3.66 mg/kg,256.63 ± 154.55 U/L
same,Creatine Kinase,[1]; 7.31 mg/kg,640.25 ± 333.16 U/L
same,Lactate dehydrogenase,[1]; 7.31 mg/kg,767.38 ± 546.88 U/L
same,α-hydroxybutyrate dehydrogenase,[1]; 7.31 mg/kg,325.63 ± 238.56 U/L
same,Creatine Kinase,[1]; 14.63 mg/kg,510.89 ± 240.61 U/L
same,Lactate dehydrogenase,[1]; 14.63 mg/kg,510.44 ± 275.48 U/L
same,α-hydroxybutyrate dehydrogenase,[1]; 14.63 mg/kg,218.67 ± 118.08 U/L
same,Creatinine,[2]; [5],14.67 ± 1.46 µmol/L
same,Serum urea nitrogen,[2]; [5],6.85 ± 0.90 mmol/L
same,Uric acid,[2]; [5],163.43 ± 12.51 µmol/L
same,Creatinine,[2]; [6],14.23 ± 1.90 µmol/L
same,Serum urea nitrogen,[2]; [6],5.98 ± 0.62 mmol/L
same,Uric acid,[2]; [6],152.71 ± 16.58 µmol/L
same,Creatinine,[2]; [7],12.71 ± 1.98 µmol/L
same,Serum urea nitrogen,[2]; [7],5.79 ± 0.62 mmol/L
same,Uric acid,[2]; [7],151.14 ± 18.48 µmol/L
same,Creatinine,[2]; [8],16.06 ± 1.19 µmol/L
same,Serum urea nitrogen,[2]; [8],6.00 ± 0.98 mmol/L
same,Uric acid,[2]; [8],152.43 ± 25.28 µmol/L
same,Creatinine,[2]; [9],13.51 ± 1.33 µmol/L
same,Serum urea nitrogen,[2]; [9],5.86 ± 0.54 mmol/L
same,Uric acid,[2]; [9],155.33 ± 21.56 µmol/L
same,"effect on serum urea nitrogen, creatinine and uric acid","[2]; female rats, normoxia",no significant effects
same,Creatinine,[2]; [10],19.37 ± 4.32 µmol/L
same,Serum urea nitrogen,[2]; [10],6.23 ± 0.36 mmol/L
same,Uric acid,[2]; [10],193.57 ± 20.80 µmol/L
same,"effect on serum urea nitrogen, creatinine and uric acid",[2]; hypoxia exposed female rats,no significant effects
same,effect on serum urea nitrogen and creatinine,[2]; hypoxia exposed male rats,no significant effect
same,effect on serum uric acid content,"[2]; hypoxia exposed male rats, low-dose",reduce serum uric acid content
same,Creatinine,"[2]; male rats, hypoxia, 0.91 mg/kg",18.44 ± 1.46 µmol/L
same,Serum urea nitrogen,"[2]; male rats, hypoxia, 0.91 mg/kg",5.13 ± 0.75 mmol/L
same,Uric acid,"[2]; male rats, hypoxia, 0.91 mg/kg",134.25 ± 19.08 µmol/L
same,Creatinine,"[2]; male rats, hypoxia, 1.83 mg/kg",21.59 ± 3.31 µmol/L
same,Serum urea nitrogen,"[2]; male rats, hypoxia, 1.83 mg/kg",5.44 ± 1.13 mmol/L
same,Uric acid,"[2]; male rats, hypoxia, 1.83 mg/kg",142.60 ± 10.78 µmol/L
same,Creatinine,"[2]; male rats, hypoxia, 3.66 mg/kg",21.90 ± 2.88 µmol/L
same,Serum urea nitrogen,"[2]; male rats, hypoxia, 3.66 mg/kg",6.37 ± 1.64 mmol/L
same,Uric acid,"[2]; male rats, hypoxia, 3.66 mg/kg",171.38 ± 14.92 µmol/L
same,Creatinine,"[2]; male rats, hypoxia, 7.31 mg/kg",22.40 ± 1.53 µmol/L
same,Serum urea nitrogen,"[2]; male rats, hypoxia, 7.31 mg/kg",5.91 ± 0.86 mmol/L
same,Uric acid,"[2]; male rats, hypoxia, 7.31 mg/kg",202.16 ± 17.13 µmol/L
same,Creatinine,[2]; [11],22.49 ± 3.00 µmol/L
same,Serum urea nitrogen,[2]; [11],6.23 ± 1.36 mmol/L
same,Uric acid,[2]; [11],182.22 ± 15.80 µmol/L
same,effect on nitric oxide,[3]; [12],no significant effect
same,effect on serum endothelin-1 content,[3]; [12],can increase
same,Endothelin-1,[3]; [5],64.75 ± 2.72 ng/mL
same,Nitric oxide,[3]; [5],3.50 ± 1.24 µmol/L
same,Endothelin-1,[3]; [6],63.21 ± 4.33 ng/mL
same,Nitric oxide,[3]; [6],4.47 ± 1.35 µmol/L
same,Endothelin-1,[3]; [7],68.58 ± 5.38 ng/mL
same,Nitric oxide,[3]; [7],6.19 ± 2.06 µmol/L
same,Endothelin-1,[3]; [8],65.44 ± 14.06 ng/mL
same,Nitric oxide,[3]; [8],5.92 ± 2.31 µmol/L
same,Endothelin-1,[3]; [9],65.26 ± 6.60 ng/mL
same,Nitric oxide,[3]; [9],4.62 ± 3.25 µmol/L
same,effect on nitric oxide content,"[3]; female rats, normoxia",no significant effects
same,effect on serum endothelin-1 content,"[3]; female rats, normoxia",can reduce
same,Endothelin-1,[3]; [10],47.50 ± 7.31 ng/mL
same,Nitric oxide,[3]; [10],5.01 ± 1.57 µmol/L
same,effect on serum endothelin-1 and nitric oxide,[3]; hypoxia exposed male rats,no significant effects
same,Endothelin-1,"[3]; male rats, hypoxia, 0.91 mg/kg",45.35 ± 4.24 ng/mL
same,Nitric oxide,"[3]; male rats, hypoxia, 0.91 mg/kg",5.28 ± 0.71 µmol/L
same,Endothelin-1,"[3]; male rats, hypoxia, 1.83 mg/kg",42.59 ± 1.45 ng/mL
same,Nitric oxide,"[3]; male rats, hypoxia, 1.83 mg/kg",5.15 ± 2.11 µmol/L
same,Endothelin-1,"[3]; male rats, hypoxia, 3.66 mg/kg",48.14 ± 3.13 ng/mL
same,Nitric oxide,"[3]; male rats, hypoxia, 3.66 mg/kg",5.35 ± 1.35 µmol/L
same,Endothelin-1,"[3]; male rats, hypoxia, 7.31 mg/kg",43.60 ± 0.94 ng/mL
same,Nitric oxide,"[3]; male rats, hypoxia, 7.31 mg/kg",6.20 ± 2.49 µmol/L
same,Endothelin-1,[3]; [11],42.45 ± 3.84 ng/mL
same,Nitric oxide,[3]; [11],6.46 ± 1.44 µmol/L
same,effect on serum total protein content,"[4]; female rats, high-dose",the same as the hypoxia model group
same,albumin (second column),[4]; [5],31.03 ± 0.98 g/L
same,albumin (second column),[4]; [6],29.67 ± 0.98 g/L
same,albumin (second column),[4]; [7],29.33 ± 0.62 g/L
same,albumin (second column),[4]; [9],30.16 ± 1.40 g/L
same,albumin (second column),"[4]; female rats, hypoxia, 7.3 l mg/kg",31.49 ± 0.70 g/L
same,effect on total serum protein content,"[4]; female rats, normoxia",no significant effects
same,albumin (second column),[4]; [10],30.87 ± 1.41 g/L
same,effect on serum albumin,[4]; hypoxia exposed female rats (PQQ low-dose),can reduce the effect of serum albumin in female rats increase caused by hypoxic exposure
same,effect on serum total protein content,"[4]; hypoxia exposed female rats, low-dose",can slightly reduce
same,effect on serum albumin content,[4]; [13],can reduce the effect of hypoxia exposure on the increase in serum albumin content
same,effect on serum total protein content,[4]; [13],can slightly reduce
same,effect on serum total protein content,"[4]; male rats, high-dose",the same as that of the hypoxia model group
same,albumin (second column),"[4]; male rats, hypoxia, 0.91 mg/kg",22.55 ± 2.53 g/L
same,albumin (second column),"[4]; male rats, hypoxia, 1.83 mg/kg",26.14 ± 2.04 g/L
same,albumin (second column),"[4]; male rats, hypoxia, 3.66 mg/kg",28.60 ± 1.12 g/L
same,albumin (second column),"[4]; male rats, hypoxia, 7.31 mg/kg",28.06 ± 1.31 g/L
same,albumin (second column),[4]; [11],28.38 ± 0.90 g/L
